Assays:
[1] = Inhibition of quorum-sensing system in Vibrio harveyi MM32 assessed as inhibition of AI-2 mediated bioluminescence incubated for 4 to 6 hrs by bioluminescence assay
[2] = target: T1, Autoinducer 1 sensor kinase/phosphatase LuxN (Vibrio harveyi, UniProt P0C5S6); experiment: Antagonist activity against Vibrio harveyi BB120 LuxN assessed as inhibition of AI-2 regulated bioluminescence and measured after 6 hrs by bioluminescence assay
T1 sequence (P0C5S6 whole entry): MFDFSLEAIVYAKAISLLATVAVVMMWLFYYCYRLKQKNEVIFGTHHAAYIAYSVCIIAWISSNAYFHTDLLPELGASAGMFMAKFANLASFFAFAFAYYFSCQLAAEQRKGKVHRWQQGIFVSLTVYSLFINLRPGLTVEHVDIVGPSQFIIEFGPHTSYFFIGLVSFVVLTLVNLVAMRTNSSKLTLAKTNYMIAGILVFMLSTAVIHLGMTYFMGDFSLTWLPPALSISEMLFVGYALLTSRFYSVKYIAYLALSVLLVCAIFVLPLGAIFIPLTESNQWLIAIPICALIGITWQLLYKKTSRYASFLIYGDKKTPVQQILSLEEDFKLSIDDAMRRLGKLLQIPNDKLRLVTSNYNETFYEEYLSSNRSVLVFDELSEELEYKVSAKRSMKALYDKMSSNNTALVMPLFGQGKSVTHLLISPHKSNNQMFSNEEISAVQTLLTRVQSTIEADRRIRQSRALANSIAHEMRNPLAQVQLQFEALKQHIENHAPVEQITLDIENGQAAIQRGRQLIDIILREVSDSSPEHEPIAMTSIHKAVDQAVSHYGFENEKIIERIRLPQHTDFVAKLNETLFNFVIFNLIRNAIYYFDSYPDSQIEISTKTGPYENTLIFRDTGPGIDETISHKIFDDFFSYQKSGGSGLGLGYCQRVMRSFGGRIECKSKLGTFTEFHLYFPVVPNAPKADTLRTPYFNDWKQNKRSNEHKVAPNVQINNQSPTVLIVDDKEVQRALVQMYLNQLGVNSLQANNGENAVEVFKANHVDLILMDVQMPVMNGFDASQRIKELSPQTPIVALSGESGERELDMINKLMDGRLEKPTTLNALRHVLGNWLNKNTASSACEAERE

[3] = target: T2, HTH-type transcriptional regulator LuxR (Vibrio harveyi) (UniProt P21308); experiment: Inhibition of LuxR quorum sensing system in Vibrio harveyi BB120 assessed as inhibition of autoinducer-2 induced luxR activity at 100 uM for 16 hrs by bioluminescence assay
T2 sequence (whole entry): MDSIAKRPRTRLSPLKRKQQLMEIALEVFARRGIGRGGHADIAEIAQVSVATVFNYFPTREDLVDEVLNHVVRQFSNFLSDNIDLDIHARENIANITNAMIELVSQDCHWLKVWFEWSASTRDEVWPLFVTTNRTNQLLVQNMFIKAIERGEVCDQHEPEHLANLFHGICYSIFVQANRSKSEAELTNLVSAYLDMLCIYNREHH

Vibrio harveyi [4] = experiment: Inhibition of CAI-1 mediated quorum-sensing in Vibrio harveyi JMH626 assessed as inhibition of CAI-1 mediated luminescence at 2 uM by bioluminescence assay
LuxP/Q (Vibrio harveyi) = LuxP/Q (Vibrio harveyi) (UniProt P54300+P54302); experiment: Antagonist activity against Vibrio harveyi BB886 LuxPQ assessed as inhibition of AI-2 induced bioluminescence at 40 uM and measured after 6 hrs by bioluminescence assay; assay type: protein-complex assay
[5] = Inhibition of quorum-sensing system in Vibrio harveyi BB170 assessed as inhibition of AI-2 at 0.1 to 10 uM and measured after 24 hrs by bioluminescence assay; conditions: dose 0.1-10 µM
[6] = Toxicity in […] mouse with abdominal infection assessed survival rate at 4.5 microg/g,ip and measured after 4 days; conditions: in vivo, dose 4.5 µg/g, time 4 day
LuxP/Q = LuxP/Q (Vibrio harveyi, UniProt P54300+P54302); experiment: Antagonist activity against LuxPQ quorum sensing system in Vibrio harveyi MM32 assessed as inhibition of luminescence intensity incubated for 3 to 4 hrs by luminescence microplate reader analysis; assay type: protein-complex assay
Chain of LuxP/Q (P54300 whole entry): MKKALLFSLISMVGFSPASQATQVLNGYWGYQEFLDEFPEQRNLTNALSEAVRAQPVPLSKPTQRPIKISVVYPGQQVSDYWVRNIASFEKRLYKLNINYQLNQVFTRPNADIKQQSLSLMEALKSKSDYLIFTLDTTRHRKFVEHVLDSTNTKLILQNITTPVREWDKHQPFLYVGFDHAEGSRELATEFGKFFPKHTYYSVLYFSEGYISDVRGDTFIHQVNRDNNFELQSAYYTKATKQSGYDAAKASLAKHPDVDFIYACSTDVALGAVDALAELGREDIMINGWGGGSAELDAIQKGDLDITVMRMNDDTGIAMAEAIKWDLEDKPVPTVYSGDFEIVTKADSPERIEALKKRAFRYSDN
Chain of LuxP/Q (P54302 whole entry): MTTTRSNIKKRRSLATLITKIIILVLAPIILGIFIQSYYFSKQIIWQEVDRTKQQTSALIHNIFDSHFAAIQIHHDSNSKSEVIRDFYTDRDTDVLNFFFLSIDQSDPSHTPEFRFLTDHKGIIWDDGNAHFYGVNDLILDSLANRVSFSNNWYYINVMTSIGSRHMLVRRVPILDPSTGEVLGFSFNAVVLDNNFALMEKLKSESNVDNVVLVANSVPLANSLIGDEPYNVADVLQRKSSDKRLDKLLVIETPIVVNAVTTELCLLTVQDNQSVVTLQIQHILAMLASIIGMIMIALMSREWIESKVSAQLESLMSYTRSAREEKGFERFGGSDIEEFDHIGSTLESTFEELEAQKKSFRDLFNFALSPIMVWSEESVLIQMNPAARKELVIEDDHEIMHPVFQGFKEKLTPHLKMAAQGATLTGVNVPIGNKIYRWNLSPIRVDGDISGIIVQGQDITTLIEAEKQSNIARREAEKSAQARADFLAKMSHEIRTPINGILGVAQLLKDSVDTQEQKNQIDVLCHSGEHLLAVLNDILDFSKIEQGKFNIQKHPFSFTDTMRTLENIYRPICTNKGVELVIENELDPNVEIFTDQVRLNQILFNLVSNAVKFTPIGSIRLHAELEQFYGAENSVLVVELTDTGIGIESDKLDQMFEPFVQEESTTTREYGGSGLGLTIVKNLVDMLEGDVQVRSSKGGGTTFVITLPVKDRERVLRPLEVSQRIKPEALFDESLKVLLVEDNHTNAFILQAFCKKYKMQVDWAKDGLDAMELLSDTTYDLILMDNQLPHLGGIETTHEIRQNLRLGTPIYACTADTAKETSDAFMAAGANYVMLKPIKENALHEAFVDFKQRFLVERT

Vibrio harveyi [7] = experiment: Inhibition of Vibrio harveyi BB886 LuxS assessed as inhibition of autoinducer-2 induced QS activity at 100 uM for 16 hrs by bioluminescence assay
Vibrio harveyi [8] = experiment: Inhibition of biofilm formation in Vibrio harveyi BB120 at 500 uM for 24 hrs by crystal violet assay; assay type: functional
[9] = Inhibition of quorum-sensing system in Vibrio harveyi BB170 assessed as inhibition of LuxU induced bioluminescence by bioluminescence assay; parameters: concentration or dose not given beside the values; conditions: concentration not given here
[10] = target: T3, Autoinducer 1 sensor kinase/phosphatase LuxN (Vibrio harveyi) (UniProt P0C5S6); experiment: Inhibition of LuxN quorum sensing signaling in Vibrio harveyi BB886 assessed as inhibition of N-acylhomoserine lactone (HAI-1) activity by measuring bioluminescence for every 20 mins by autoinducer bioassay
T3 sequence (whole entry): T1 sequence (P0C5S6 whole entry)

[11] = target: Autoinducer 2-binding periplasmic protein LuxP (Vibrio harveyi) (UniProt P54300); experiment: Antagonist activity against LuxP signalling in Vibrio harveyi BB170 assessed as inhibition of AI-2 regulated bioluminescence at 20 to 40 uM and measured after 2.5 hrs by bioluminescence assay; conditions: filed as antagonist, dose 20-40 µM
Chain of Autoinducer 2-binding periplasmic protein LuxP (Vibrio harveyi) (P54300 whole entry): as the sequence (P54300 whole entry) above

[12] = target: T1, Autoinducer 1 sensor kinase/phosphatase LuxN; experiment: Antagonist activity at LuxN signaling in Vibrio harveyi HLS253 assessed as inhibition of 3-hydroxybutanoyl homoserine lactone induced bioluminescence by autoinducer based bioluminescence assay

CSc1nccc(Oc2ccccc2Cl)n1
IC50 [1]: 3.42 µM

Nc1ncnc2c1ncn2[C@@H]1O[C@H](CO)[C@@H](N)[C@H]1O
IC50 [2]: 2.9 µM

O=C/C=C/c1ccc([N+](=O)[O-])cc1
inhibition [3]: 33%

CCCC/C=C/C(C)=O
inhibition [3]: 80%

[N-]=[N+]=N[C@H]1[C@@H](O)[C@H](n2cnc3c(N)ncnc32)O[C@@H]1CO
IC50 [2]: 2.7 µM

CC(=O)CCc1ccccc1
inhibition [3]: 13%

CC/C=C/C=O
inhibition [3]: 58%

O=C/C=C/c1ccccc1
inhibition [3]: 65%

CC1=CCn2nc(N)c(/N=N/c3ccccc3)c2N1
IC50 [1]: 19.8 µM

CCCCCCC[C@@H](C/C=C/CCC(=O)O)OC
inhibition (Vibrio harveyi [4]): 100%

COc1ccc(CCC(=O)NC[C@H]2[C@@H](O)[C@H](n3cnc4c(N)ncnc43)O[C@@H]2CO)cc1
inhibition (LuxP/Q (Vibrio harveyi)): 20%

O=C(O)c1ccc(-c2c(Cl)cc([N+](=O)[O-])cc2Cl)o1
IC50 [1]: 40.1 µM

CCCCCCCCCCCCCCCCCC(=O)O
inhibition [5]: > 25%

COc1ccc(CCC(=O)N[C@H]2[C@@H](O)[C@H](n3cnc4c(N)ncnc43)O[C@@H]2CO)cc1
inhibition (LuxP/Q (Vibrio harveyi); filed as antagonist): 80%

NC(=O)/C=C/c1ccccc1
inhibition [3]: 61%

CCCCC1=C(Br)/C(=C/Br)OC1=O
survival at 96 h [6]: 90%

OB(O)c1ccc(OCc2ccccc2)cc1
IC50 (LuxP/Q): 4 µM

O=C1C=C/C(=C/Br)O1
inhibition (Vibrio harveyi [7]): 96%

O=C/C=C/c1ccc(Cl)c(C(F)(F)F)c1
inhibition [3]: 97%

COc1cc(/C=C/C(=O)c2c(O)cc(O)cc2OC)ccc1O
inhibition at 500 µM (Vibrio harveyi [8]): 60%

O=C/C=C/c1ccc(Cl)c(Cl)c1
inhibition [3]: 99%

CCCCCCCCCCCCCCCC(=O)O
inhibition [5]: 25%

CCCCCCCCC/C=C/C=O
inhibition [3]: 87%

CCCCC/C=C\C/C=C\CCCCCCCC(=O)O
inhibition [5]: > 99%

CCCCCC/C=C/C(=O)CO
inhibition [3]: 17%

O=c1c(O)c(-c2ccc(O)cc2)oc2cc(O)cc(O)c12
inhibition [9]: > 99%

C/C(=C\COc1c2ccoc2cc2oc(=O)ccc12)CCC(O)C(C)(C)O (configuration not stated)
inhibition [10]: 96.7%

CC(C)C(=O)C(=O)C(O)CO (configuration not stated)
inhibition [11]: 50%

O=c1cc(-c2ccc(O)cc2)oc2cc(O)cc(O)c12
inhibition [9]: 60%

CC(C)=CCC/C(C)=C/COc1c2ccoc2cc2oc(=O)ccc12
inhibition [10]: 96.7%

NC(=S)CS(=O)(=O)c1cccs1
inhibition (LuxP/Q (Vibrio harveyi); filed as antagonist): 60%

COc1ccc(-c2cc(=O)c3c(OC)c(OC)c(OC)cc3o2)cc1OC
inhibition [9]: 60%

CCCCCC/C=C/C=O
inhibition [3]: 100%

CSC1=CS(=O)(=O)c2ccccc21
IC50 [1]: 41 µM

C[C@@H]1O[C@@H](O[C@H]2[C@H](Oc3cc(O)c4c(c3)OC(c3ccc(O)cc3)CC4=O)O[C@H](CO)[C@@H](O)[C@@H]2O)[C@H](O)[C@H](O)[C@H]1O (some centres not stated)
inhibition [9]: 40%

CCCC/C=C/C(=O)O
inhibition [3]: 36%

CC(C)(C)S(=O)(=O)CC#N
IC50 [1]: 110 µM

CCCCCCCCCC/C=C/C=O
inhibition [3]: 56%

C[C@@H]1O[C@@H](O[C@H]2[C@H](Oc3cc(O)c4c(c3)OC(c3ccc(O)c(O)c3)CC4=O)O[C@H](CO)[C@@H](O)[C@@H]2O)[C@H](O)[C@H](O)[C@H]1O (some centres not stated)
inhibition [9]: > 20%

Cc1ccc(B(O)O)c(F)c1
IC50 (LuxP/Q): 4 µM

CC(=O)/C=C/c1ccccc1
inhibition [3]: 78%

CCC/C=C/C=O
inhibition [3]: 35%

CCCCCCC/C=C/C=O
inhibition [3]: 90%

COc1cc(O)cc([C@@H]2CC(=O)c3c(OC)cc(O)cc3O2)c1
inhibition at 500 µM (Vibrio harveyi [8]): 68%

Cn1cnnc1SCC(=O)Nc1nc2ccccc2s1
IC50 [1]: 5.51 µM

COc1ccc(/C=C/C=O)cc1
inhibition [3]: 34%

O=C/C=C/c1ccccc1[N+](=O)[O-]
inhibition [3]: 62%

CCCCC/C=C/C=O
inhibition [3]: 71%

COc1cccc(/C=C/C(=O)N[C@H]2[C@@H](O)[C@H](n3cnc4c(N)ncnc43)O[C@@H]2CO)c1
inhibition (LuxP/Q (Vibrio harveyi)): 20%

CN(C)c1ccc(/C=C/C=O)cc1
inhibition [3]: 17%

Brc1ccc2ncsc2c1
IC50 [1]: 88 µM

O=C/C=C/c1c(F)c(F)c(F)c(F)c1F
inhibition [3]: 95%

CC(C)CC(=O)C(=O)C(O)CO (configuration not stated)
inhibition [11]: 50%

NC(=S)CS(=O)(=O)c1ccccn1
IC50 [1]: 55 µM

CCCC/C=C/C=O
inhibition [3]: 55%

CC(=O)C1=CCCCC1
inhibition [3]: 16%

N#Cc1ccc(B(O)O)cc1
IC50 (LuxP/Q): 6 µM

O=C1CC(c2ccc(O)cc2)Oc2cc(O)cc(O)c21 (configuration not stated)
inhibition [9]: 80%

C=CCOC(=O)C1=CS(=O)(=O)c2ccccc21
IC50 [1]: 3.06 µM

COc1ccc(C2CC(=O)c3c(O)cc(O[C@@H]4O[C@H](CO[C@@H]5O[C@@H](C)[C@H](O)[C@@H](O)[C@H]5O)[C@@H](O)[C@H](O)[C@H]4O)cc3O2)cc1O (some centres not stated)
inhibition [9]: 10%

Fc1ccccc1-c1ccc(CNCc2ccco2)o1
IC50 [1]: 14.8 µM

CCCCCCCC/C=C\CCCCCCCC(=O)O
inhibition [5]: > 75%

CCCCCCCC/C=C/C=O
inhibition [3]: 94%

CCCCCC/C=C/C(C)=O
inhibition [3]: 100%

COc1ccc(CCC(=O)N[C@@H]2[C@@H](CO)OC(OC)[C@@H]2O)cc1 (some centres not stated)
inhibition (LuxP/Q (Vibrio harveyi); filed as antagonist): 40%

COC(=O)c1ccc(B(O)O)cc1
IC50 (LuxP/Q): 5 µM
inhibition (LuxP/Q (Vibrio harveyi); filed as antagonist): > 80%

CS(=O)(=O)/C=C/c1ccccc1
inhibition [3]: 73%

Brc1ccc(-c2cnco2)cc1
IC50 [1]: 60 µM

CCCCCC/C=C/C(=O)OC
inhibition [3]: 59%

CCCCC/C=C/C(C)=O
inhibition [3]: 100%

CC(=O)N1CCc2cc(S(=O)(=O)NC(CC(C)C)C(=O)CCc3ccc(O)cc3)ccc21 (configuration not stated)
IC50 [12]: 2.7 µM

O=c1c(O)c(-c2ccc(O)c(O)c2)oc2cc(O)cc(O)c12
inhibition [9]: > 99%

COc1ccccc1/C=C/C=O
inhibition [3]: 14%

O=C(c1ccc(O)cc1)c1ccc(S(=O)(=O)c2ccc(O)cc2)cc1
IC50 [12]: 2.6 µM

COc1ccc(C2CC(=O)c3c(O)cc(O[C@@H]4O[C@H](CO)[C@@H](O)[C@H](O)[C@H]4O[C@@H]4O[C@@H](C)[C@H](O)[C@@H](O)[C@H]4O)cc3O2)cc1O (some centres not stated)
inhibition [9]: > 20%

Cc1ccc(B(O)O)cc1F
IC50 (LuxP/Q): 9 µM

Source: ChEMBL document CHEMBL5260849, “Current advances in Vibrio harveyi quorum sensing as drug discovery targets” (Eur J Med Chem, 2020)
